Here are results for 21 molecules from patent US9957264B2 (Merck Sharp & Dohme Corp., priority 2013, dated 2018).

Experiment [1] deals with JAK1 (recombinant purified GST-tagged catalytic domain) (Homo sapiens (Human), UniProt P23458). The experiment can be described thus: Jak Biochemical HTRF Assay (JAK1). Conditions: [ATP] 31.8 μM. Put shortly: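 Under a 120 min room-temperature, ATP-initiated reaction, peptide phosphorylation was detected by Eu-pY20/streptavidin-Dylight 650 HTRF after EDTA stop. IC50 values derive from percent inhibition curves.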

Experiment [2] has as its target JAK2 (recombinant purified GST-tagged catalytic domain) (Homo sapiens (Human), UniProt O60674). The experiment can be described thus: Jak Biochemical HTRF Assay (JAK2). The conditions noted are these: [ATP] 8.5 μM. (In general: Time-resolved FRET reads energy transfer from a long-lived donor to a nearby acceptor.)

Each structure is given as a SMILES string.

JAK1 (recombinant purified GST-tagged catalytic domain), sequence (P23458 875-1153): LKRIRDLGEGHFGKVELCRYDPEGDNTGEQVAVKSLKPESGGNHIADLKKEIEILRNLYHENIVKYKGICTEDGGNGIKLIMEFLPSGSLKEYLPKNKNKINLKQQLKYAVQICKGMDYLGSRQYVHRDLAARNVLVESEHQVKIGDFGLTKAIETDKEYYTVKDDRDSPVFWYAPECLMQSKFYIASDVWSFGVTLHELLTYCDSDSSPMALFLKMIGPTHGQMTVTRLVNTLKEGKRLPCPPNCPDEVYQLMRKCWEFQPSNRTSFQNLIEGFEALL
JAK2 (recombinant purified GST-tagged catalytic domain), sequence (O60674 849-1124): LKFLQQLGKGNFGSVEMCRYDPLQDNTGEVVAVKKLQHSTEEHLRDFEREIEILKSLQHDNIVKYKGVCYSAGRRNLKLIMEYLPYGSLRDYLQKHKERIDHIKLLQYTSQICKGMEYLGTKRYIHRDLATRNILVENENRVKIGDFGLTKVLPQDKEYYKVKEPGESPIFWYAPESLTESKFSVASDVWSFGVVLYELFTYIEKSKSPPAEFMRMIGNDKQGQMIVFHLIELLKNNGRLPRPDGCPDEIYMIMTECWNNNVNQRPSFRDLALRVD

As usually defined, the IC50 is the concentration that gives 50% inhibition. Regarding `Cc1cc(Nc2nn([C@]3(CC#N)CC[C@@H](C(=O)OC(C)(C)C)OC3)c3cc[nH]c(=O)c23)ccc1C(=O)N1C[C@@H]2C[C@H]1CO2` [Example 20-16, (2S,5S)-tert-butyl 5-(3-((4-((1S,4S)-2-oxa-5-azabicyclo[2.2.1]heptane-5-carbonyl)-3-methylphenyl)amino)-4-oxo-4,5-dihydro-1H-pyrazolo[4,3-c]pyridin-1-yl)-5-(cyanomethyl)tetrahydro-2H-pyran-2-carboxylate], the half-inhibitory concentration (IC50) is 0.1 nM in experiment [1] and 0.15 nM in experiment [2].
Regarding `Cc1cc(Nc2nn([C@]3(CC#N)CC[C@@H](C(=O)OC(C)(C)C)OC3)c3cc[nH]c(=O)c23)ccc1C(=O)N1CC(C)OC(C)C1` (single isomer, unassigned) [Example 20-13, (2S,5S)-tert-butyl 5-(cyanomethyl)-5-(3-((4-((2S,6S or 2R,6R)-2,6-dimethylmorpholine-4-carbonyl)-3-methylphenyl)amino)-4-oxo-4,5-dihydro-1H-pyrazolo[4,3-c]pyridin-1-yl)tetrahydro-2H-pyran-2-carboxylate], the values for the 50% inhibitory concentration (IC50) in experiment [1] and in experiment [2] were 0.22 nM and 0.26 nM, respectively.
In the case of `CC(C)(C)NC(c1ccc(Nc2nn([C@]3(CC#N)CCCOC3)c3cc[nH]c(=O)c23)cc1)C(F)(F)F` (single isomer, unassigned) [Example 5-190, {(3S)-3-[3-({4-[(1S or 1R)-1-(tert-butylamino)-2,2,2-trifluoroethyl]phenyl}amino)-4-oxo-4,5-dihydro-1H-pyrazolo [4,3-c]pyridin-1-yl]tetrahydro-2H-pyran-3-yl}acetonitrile], the concentration for half-maximal inhibition (IC50) was 0.21 nM in experiment [1] and 0.38 nM in experiment [2].
Regarding `COC1CN([C@H]2CC[C@@](CC#N)(n3nc(Nc4ccc(OC(F)(F)F)cc4)c4c(=O)[nH]ccc43)CC2)C1` [Example 18-15, Cis 2-(4-(3-methoxyazetidin-1-yl)-1-(4-oxo-3-((4-(trifluoromethoxy)phenyl)amino)-4,5-dihydro-1H-pyrazolo[4,3-c]pyridin-1-yl)cyclohexyl)acetonitrile], the half-inhibitory concentration (IC50) in experiment [1] is 151 nM; in experiment [2], 1140 nM.
In the case of `CN(C)S(=O)(=O)c1ccc(Nc2nn(C3(CC#N)CCC(=O)CC3)c3cc[nH]c(=O)c23)cc1` [Example 18-39, 4-((1-(1-(cyanomethyl)-4-oxocyclohexyl)-4-oxo-4,5-dihydro-1H-pyrazolo[4,3-c]pyridin-3-yl)amino)-N,N-dimethylbenzenesulfonamide], the half-inhibitory concentration (IC50) in experiment [1] is 1.37 nM; in experiment [2], 1.78 nM.
For `COC(=O)N1CCC(CC#N)(n2nc(Nc3ccc4c(c3)CN(C)S4(=O)=O)c3c(=O)[nH]ccc32)CC1` [Example 5-70, methyl 4-(cyanomethyl)-4-[3-[(2-methyl-1,1-dioxo-2,3-dihydro-1,2-benzothiazol-5-yl)amino]-4-oxo-1H,4H,5H-pyrazolo[4,3-c]pyridin-1-yl]piperidine-1-carboxylate], the half-inhibitory concentration (IC50) in experiment [1] stood at 0.07 nM; in experiment [2], 0.58 nM.
With `COC(=O)N1CCC(CC#N)(n2nc(Nc3ccc(C(C)(O)C(F)(F)F)cc3)c3c(=O)[nH]ccc32)CC1` (single isomer, unassigned) [Example 5-142, (R or S)-methyl 4-(cyanomethyl)-4-(4-oxo-3-((4-(1,1,1-trifluoro-2-hydroxypropan-2-yl)phenyl)amino)-4,5-dihydro-1H-pyrazolo[4,3-c]pyridin-1-yl)piperidine-1-carboxylate], the half-maximal inhibitory concentration (IC50) in experiment [1] worked out at 0.13 nM; in experiment [2], 0.33 nM.
In the same order, the values of `CN(C)S(=O)(=O)c1ccc(Nc2nn(C3(CC#N)CCN(Cc4c(F)cccc4F)CC3)c3cc[nH]c(=O)c23)cc1` [Example 8-10, 4-({1-[4-(cyanomethyl)-1-(2,6-difluorobenzyl)piperidin-4-yl]-4-oxo-4,5-dihydro-1H-pyrazolo[4,3-c]pyridin-3-yl}amino)-N,N-dimethylbenzenesulfonamide] are 0.19 nM and 0.29 nM.
Take `CC(C)(C)OC(=O)[C@@H]1CC[C@@](CC#N)(n2nc(Nc3cnc4ccccc4c3)c3c(=O)[nH]ccc32)CO1` [Example 5-221, (2S,5S)-tert-butyl 5-(cyanomethyl)-5-(4-oxo-3-(quinolin-3-ylamino)-4,5-dihydro-1H-pyrazolo[4,3-c]pyridin-1-yl)tetrahydro-2H-pyran-2-carboxylate]: the 50% inhibitory concentration (IC50) is 0.35 nM in experiment [1] and 5.29 nM in experiment [2].
The matching figures for `N#CC[C@]1(n2nc(Nc3ccc(C(N)C(F)(F)F)cc3)c3c(=O)[nH]ccc32)CCCC[C@H]1F` (single isomer, unassigned) [Example 5-177, {(1R,2R)-1-[3-({4-[(1S or 1R)-1-amino-2,2,2-trifluoroethyl]phenyl}amino)-4-oxo-4,5-dihydro-1H-pyrazolo[4,3-c]pyridin-1-yl]-2-fluorocyclohexyl} acetonitrile]: 0.09 nM and 0.16 nM.
`N#CCC1(n2nc(Nc3ccc(C(F)(F)F)cc3)c3c(=O)[nH]ccc32)CCC(N2CC(F)C2)CC1` (single isomer, unassigned) [Example 18-1, 2-(4-(3-fluoroazetidin-1-yl)-1-(4-oxo-3-((4-(trifluoromethyl)phenyl)amino)-4,5-dihydro-1H-pyrazolo[4,3-c]pyridin-1-yl)cyclohexyl)acetonitrile]: the half-maximal inhibitory concentration (IC50) amounted to 0.26 nM in experiment [1] and 0.94 nM in experiment [2].
For `CC(C)S(=O)(=O)c1ccc(Nc2nn([C@@]3(CC#N)CCCC[C@H]3F)c3cc[nH]c(=O)c23)cc1` [Example 5-87, {(1R,2R)-2-fluoro-1-[3-({4-[(1-methylethyl)sulfonyl]phenyl}amino)-4-oxo-4,5-dihydro-1H-pyrazolo[4,3-c]pyridin-1-yl]cyclohexyl}acetonitrile], the IC50 is 0.04 nM in experiment [1] and 0.05 nM in experiment [2].
Consider `CC(C)(C)OC(=O)[C@@H]1CC[C@@](CC#N)(n2nc(Nc3ccc(S(C)(=O)=O)cc3)c3c(=O)[nH]ccc32)CO1` [Example 5-39, (2S,5S)-tert-butyl 5-(cyanomethyl)-5-(3-((4-(methylsulfonyl)phenyl)amino)-4-oxo-4,5-dihydro-1H-pyrazolo[4,3-c]pyridin-1-yl)tetrahydro-2H-pyran-2-carboxylate], for which the values for the IC50 in experiment [1] and in experiment [2] were 0.06 nM and 0.43 nM, respectively.
In the same order, the values of `Cc1cc(Nc2nn(C3(CC#N)CCN(C(=O)OC(C)(C)C)CC3)c3cc[nH]c(=O)c23)ccc1C(=O)N1CCOCC1` [Example 21-20, tert-butyl 4-(cyanomethyl)-4-(3-(3-methyl-4-(morpholine-4-carbonyl)phenylamino)-4-oxo-4,5-dihydropyrazolo[4,3-c]pyridin-1-yl)piperidine-1-carboxylate] are 0.18 nM and 0.17 nM.
In the same order, the values of `CC(C)(C)OC(=O)[C@@H]1CC[C@@](CC#N)(n2nc(Nc3ccc(S(=O)(=O)C4CC4)cc3)c3c(=O)[nH]ccc32)CO1` [Example 5-236, (2S,5S)-tert-butyl 5-(cyanomethyl)-5-(3-((4-(cyclopropylsulfonyl)phenyl)amino)-4-oxo-4,5-dihydro-1H-pyrazolo[4,3-c]pyridin-1-yl)tetrahydro-2H-pyran-2-carboxylate] are 0.12 nM and 0.25 nM.
The matching figures for `CN(C)S(=O)(=O)c1ccc(Nc2nn(C3(CC#N)CCN(C(=O)CC#N)CC3)c3cc[nH]c(=O)c23)cc1` [Example 9-25, 4-((1-(1-(2-cyanoacetyl)-4-(cyanomethyl)piperidin-4-yl)-4-oxo-4,5-dihydro-1H-pyrazolo[4,3-c]pyridin-3-yl)amino)-N,N-dimethylbenzenesulfonamide]: 0.1 nM and 0.16 nM.
As to `CC(C)(C)OC(=O)[C@@H]1CC[C@@](CC#N)(n2nc(Nc3ccc(Cn4nccn4)cc3)c3c(=O)[nH]ccc32)CO1` [Example 5-97, (2S,5S)-tert-butyl 5-(3-((4-((2H-1,2,3-triazol-2-yl)methyl)phenyl)amino)-4-oxo-4,5-dihydro-1H-pyrazolo[4,3-c]pyridin-1-yl)-5-(cyanomethyl) tetrahydro-2H-pyran-2-carboxylate], the values for the IC50 in experiment [1] and in experiment [2] were 0.09 nM and 0.14 nM, respectively.
For `Cc1cc(C)n(-c2ccc(Nc3nn([C@]4(CC#N)CC[C@@H](C(=O)OC(C)(C)C)OC4)c4cc[nH]c(=O)c34)cc2)n1` [Example 5-218, (2S,5S)-tert-butyl 5-(cyanomethyl)-5-(3-((4-(3,5-dimethyl-1H-pyrazol-1-yl)phenyl)amino)-4-oxo-4,5-dihydro-1H-pyrazolo[4,3-c]pyridin-1-yl)tetrahydro-2H-pyran-2-carboxylate], the results for the IC50 in experiment [1] and in experiment [2] were 0.16 nM and 0.73 nM, respectively.
With `COC(=O)N1CCC(CC#N)(n2nc(Nc3ccc4c(c3)CCC4(O)C(F)(F)F)c3c(=O)[nH]ccc32)CC1` (single isomer, unassigned) [Example 5-144, (R or S)-methyl 4-(cyanomethyl)-4-(3-((1-hydroxy-1-(trifluoro-methyl)-2,3-dihydro-1H-inden-5-yl)amino)-4-oxo-4,5-dihydro-1H-pyrazolo[4,3-c]pyridin-1-yl)piperidine-1-carboxylate], the IC50 in experiment [1] turned out to be 0.1 nM; in experiment [2] it was 0.21 nM.
The matching figures for `N#CCC1(n2nc(Nc3ccc(F)cc3)c3c(=O)[nH]ccc32)CCN(C(=O)C2CC2)CC1` [Example 7, [1-(cyclopropylcarbonyl)-4-{3-[(4-fluorophenyl)amino]-4-oxo-4,5-dihydro-1H-pyrazolo[4,3-c]pyridin-1-yl}piperidin-4-yl]acetonitrile]: 0.09 nM and 1.9 nM.
As to `Cc1cc(Nc2nn(C3(CC#N)CCN(c4cc(C(F)(F)F)ccn4)CC3)c3cc[nH]c(=O)c23)ccc1C(=O)N1CCSCC1` [Example 16-1, 2-(4-(3-(3-methyl-4-(thiomorpholine-4-carbonyl)phenylamino)-4-oxo-4,5-dihydropyrazolo[4,3-c]pyridin-1-yl)-1-(4-(trifluoromethyl)pyridin-2-yl)piperidin-4-yl)acetonitrile], the IC50 in experiment [1] was found to be 2.77 nM; in experiment [2], 3.06 nM.
